Data set [1] can be described thus: Aqueous solubility of compound at pH 7.4 by HPLC analysis. The data set is classed as physicochemical.
Data set [2] has as its system Chikungunya virus. Nature of the data set: Antiviral activity against Chikungunya virus infected in African green monkey Vero cells assessed as reduction in viral induced cell death incubated for 5 days by MTS reagent based absorbance method. The data set is classed as functional, organism-based. Conditions: 120 h. (In general: Tetrazolium assays rely on reduction of a dye to a coloured formazan, in cell work by metabolically active cells.)

Data set [3] is described as follows: Metabolic stability in human liver microsomes assessed as half-life preincubated for 5 mins followed by NADPH addition and measured upto 60 mins by HPLC-MS/MS analysis. The following applies: time < 65 min. The data set is classed as ADME, Microsome. For orientation: Liver microsomes are vesicles of endoplasmic reticulum, rich in cytochrome P450 enzymes.
A short description of data set [4]: Selectivity index, ratio of CC50 for cytotoxicity against African green monkey Vero cells to EC50 for antiviral activity against Chikungunya virus infected in African green monkey Vero cells assessed as reduction in viral induced cell death. The data set is classed as toxicity, cell-based. The following applies: read-out: Ratio CC50/EC50.
The nature of data set [5]: Cytotoxicity against African green monkey Vero cells assessed as reduction in overall metabolic activity incubated for 5 days by MTS reagent based absorbance method. The data set is classed as toxicity, cell-based. Conditions: chlorocebus sabaeus, time 5 day.

Converted amounts (≈) assume the structure as drawn. Some results are limits rather than exact numbers.

`Cc1cc(N2CCN(C(=O)c3ccc(Br)cc3)CC2)nc(N(C)C)n1`: the solubility in data set [1] is above 120 µM. For the same molecule, the EC50 in data set [2] amounted to 6.6 µM. Besides, the half-life in data set [3] was above 60 min. Besides, the selectivity ratio in data set [4] is above 15. The CC50 at 120 h in data set [5] is above 100 µM.

`CCNc1nc(C)cc(N2CCCC(NC(=O)c3cc(Cl)cc(Cl)c3)C2)n1` (configuration not stated) had a solubility in data set [1] of 22 µM (≈ 8.98 µg/mL). The EC50 in data set [2] is above 100 µM. Moreover, in data set [3], the half-life was found to be 44 min. Besides, the selectivity ratio in data set [4] was below 0.12. In data set [5], the CC50 at 120 h amounted to 12 µM.

In data set [1], `CNc1ccnc(N2CCN(S(=O)(=O)c3ccc(F)cc3)CC2)n1` registered a solubility above 120 µM. In data set [2], the EC50 was determined as 9.62 µM. In data set [3], the half-life came to 48 min. The selectivity ratio in data set [4] stood at 20. Moreover, the CC50 at 120 h in data set [5] was 193 µM.

As for `CCNc1nc(C)cc(N2CCN(C(=O)c3ccccc3)CC2)n1`, the solubility in data set [1] is above 120 µM. In addition, in data set [2], the EC50 is 2.05 µM. Besides, in data set [3], the half-life was above 60 min. The selectivity ratio in data set [4] was above 150. In data set [5], the cytotoxic concentration (CC50) at 120 h is above 308 µM.

`CCNc1cc(C(F)(F)F)nc(N2CCN(C(=O)c3cc(Cl)cc(Cl)c3)CC2)n1` yielded a solubility in data set [1] of 3.5 µM (≈ 1.57 µg/mL). Besides, in data set [2], the EC50 was above 6.3 µM. Also, the half-life in data set [3] was 18 min. Also, the CC50 at 120 h in data set [5] is above 25 µM.

Molecule `CCNc1nc(C)cc(N2CCN(C(=O)c3cccc(Cl)c3)CC2)n1` came in with a solubility in data set [1] above 120 µM. In addition, in data set [2], the EC50 was found to be 6.6 µM. For the same molecule, the half-life in data set [3] was above 60 min. In addition, the selectivity ratio in data set [4] is 38. Besides, the CC50 at 120 h in data set [5] was determined as 248 µM.

`CCNc1nc(C)cc(NC2CCN(C(=O)c3cc(Cl)cc(Cl)c3)CC2)n1`: in data set [1], the solubility is 101 µM (≈ 41.2 µg/mL). Besides, the EC50 in data set [2] was found to be 14 µM. In addition, in data set [3], the half-life was above 60 min. Moreover, in data set [4], the selectivity ratio worked out at 3.4. In addition, in data set [5], the CC50 at 120 h worked out at 47 µM.

Take `CCNc1nc(C)cc(N2CCN(C(=O)c3cccc(C(F)(F)F)c3)CC2)n1`: the solubility in data set [1] was above 120 µM. In data set [2], the EC50 worked out at 1.3 µM. In data set [3], the half-life is above 60 min. Further, in data set [4], the selectivity ratio turned out to be 60. Also, the CC50 at 120 h in data set [5] amounted to 80 µM.

In turn, `CCNc1nc(C)cc(N2CCN(C(=O)c3ccc(Cl)c(C(F)(F)F)c3)CC2)n1` had a solubility in data set [1] of 101 µM (≈ 43.2 µg/mL). The EC50 in data set [2] is 1.9 µM. Besides, the half-life in data set [3] was above 60 min. Also, the selectivity ratio in data set [4] was above 11. The CC50 at 120 h in data set [5] is above 20 µM.

On to `CNc1nc(C)cc(N2CCN(S(=O)(=O)c3ccc(F)cc3)CC2)n1`, for which, in data set [1], the solubility is above 120 µM. Also, the EC50 in data set [2] amounted to 11 µM. The half-life in data set [3] was above 60 min. Besides, the selectivity ratio in data set [4] turned out to be 9.2. In addition, the CC50 at 120 h in data set [5] is 99 µM.

With `CCNc1nc(C)cc(N2CCN(C(=O)c3ccc(Cl)c([N+](=O)[O-])c3)CC2)n1`, the solubility in data set [1] was above 120 µM. Moreover, in data set [2], the EC50 is 0.98 µM. Also, in data set [3], the half-life is above 60 min. Also, the selectivity ratio in data set [4] is above 20. For the same molecule, in data set [5], the CC50 at 120 h is above 20 µM.

Take `CCNc1nc(C)cc(N2CCN(C(=O)c3cccc(I)c3)CC2)n1`: the solubility in data set [1] is above 120 µM. Moreover, the EC50 in data set [2] was 1 µM. Besides, the half-life in data set [3] came out at 42 min. In data set [4], the selectivity ratio is above 98. Besides, in data set [5], the CC50 at 120 h was above 100 µM.

In data set [1], `CCNc1cc(N2CCN(S(=O)(=O)c3ccc(Cl)cc3)CC2)ncn1` displayed a solubility of 95 µM (≈ 36.3 µg/mL). Moreover, in data set [2], the EC50 was found to be 15.9 µM. Further, in data set [3], the half-life is above 60 min. Also, the selectivity ratio in data set [4] came to 2.7. The CC50 at 120 h in data set [5] is 44 µM.

As to `CCNc1cc(C)nc(N2CCN(C(=O)c3ccc(Br)cc3)CC2)n1`, the concentration in solution in data set [1] (solubility) was 116 µM (≈ 46.9 µg/mL). Besides, in data set [2], the EC50 came out at 9.58 µM. Also, the half-life in data set [3] was above 60 min. Moreover, in data set [4], the selectivity ratio is above 10. Besides, in data set [5], the CC50 at 120 h was above 100 µM.

`CCNc1ccnc(N2CCN(C(=O)c3ccc(Cl)cc3)CC2)n1` yielded a solubility in data set [1] above 120 µM. Moreover, in data set [2], the EC50 was 15 µM. In addition, the half-life in data set [3] is above 60 min. Also, the selectivity ratio in data set [4] turned out to be 3.1. Also, the CC50 at 120 h in data set [5] was 47 µM.

In turn, `CCNc1nc(C)cc(N2CCN(S(=O)(=O)c3ccc(Cl)cc3)CC2)n1` displayed a solubility in data set [1] of 104 µM (≈ 41.2 µg/mL). In data set [2], the EC50 was found to be 2.76 µM. Further, in data set [3], the half-life is 49 min. In addition, the selectivity ratio in data set [4] is 3.9. Moreover, the CC50 at 120 h in data set [5] is 11 µM.

Consider `Cc1cc(N2CCN(C(=O)c3cc(Cl)cc(Cl)c3)CC2)nc(N(C)C)n1`, for which the solubility in data set [1] worked out at 109 µM (≈ 43 µg/mL). Moreover, in data set [2], the EC50 was determined as 4.4 µM. The half-life in data set [3] was above 60 min. Also, the selectivity ratio in data set [4] is 15. In addition, the CC50 at 120 h in data set [5] came out at 67 µM.

With `CCNc1ccnc(N2CCN(C(=O)c3ccc(F)cc3)CC2)n1`, the solubility in data set [1] was above 120 µM. Further, the EC50 in data set [2] was determined as 3.9 µM. For the same molecule, the half-life in data set [3] was above 60 min. The selectivity ratio in data set [4] came out at 47. For the same molecule, the CC50 at 120 h in data set [5] was 183 µM.

Take `CCNc1cc(C)nc(N2CCN(C(=O)c3ccc(I)cc3)CC2)n1`: the solubility in data set [1] turned out to be 116 µM (≈ 52.4 µg/mL). Further, the EC50 in data set [2] was 2.9 µM. In addition, in data set [3], the half-life is above 60 min. Also, the selectivity ratio in data set [4] was above 34. Moreover, the CC50 at 120 h in data set [5] was above 100 µM.

In data set [1], `CCNc1nc(C)cc(N2CCN(C(=O)c3ccc(C)c(C)c3)CC2)n1` displayed a solubility of 118 µM (≈ 41.7 µg/mL). The EC50 in data set [2] is 0.95 µM. Besides, in data set [3], the half-life is above 60 min. For the same molecule, in data set [4], the selectivity ratio is 68. Also, the CC50 at 120 h in data set [5] came out at 65 µM.

In data set [1], `Cc1cc(N(C)C)nc(N2CCN(C(=O)c3ccc(Br)cc3)CC2)n1` yielded a solubility of 114 µM (≈ 46.1 µg/mL). Besides, the EC50 in data set [2] is 13 µM. Moreover, the half-life in data set [3] was found to be 29 min. Further, the selectivity ratio in data set [4] is 6.02. The CC50 at 120 h in data set [5] is 76 µM.

`CCNc1cc(C)nc(N2CCN(C(=O)c3cccc([N+](=O)[O-])c3)CC2)n1` yielded a solubility in data set [1] of 119 µM (≈ 44.1 µg/mL). The EC50 in data set [2] stood at 4.2 µM. The half-life in data set [3] amounted to 57 min. Also, the selectivity ratio in data set [4] was above 24. The CC50 at 120 h in data set [5] is above 100 µM.

With `CCNc1cc(C)nc(N2CCN(C(=O)c3ccc(Cl)cc3)CC2)n1`, in data set [1], the solubility was above 120 µM. The EC50 in data set [2] was determined as 2.4 µM. Moreover, the half-life in data set [3] was above 60 min. The selectivity ratio in data set [4] worked out at 37. In addition, the CC50 at 120 h in data set [5] worked out at 89 µM.

`CCNc1cc(C)nc(N2CCN(C(=O)c3cccc(Br)c3)CC2)n1` registered a solubility in data set [1] above 120 µM. Also, in data set [2], the concentration for a half-maximal effect (EC50) was determined as 5.1 µM. Besides, the half-life in data set [3] was 9.5 min. Besides, in data set [4], the selectivity ratio is above 20. The CC50 at 120 h in data set [5] is above 100 µM.

`CCNc1ccnc(N2CCN(S(=O)(=O)c3ccc(Cl)cc3)CC2)n1` registered a solubility in data set [1] of 94 µM (≈ 35.9 µg/mL). Further, in data set [2], the EC50 turned out to be 10 µM. For the same molecule, the half-life in data set [3] stood at 19 min. The selectivity ratio in data set [4] came to 2.7. In data set [5], the CC50 at 120 h was determined as 28 µM.

As to `CCNc1cc(C(F)(F)F)nc(N2CCN(C(=O)c3ccc(Br)cc3)CC2)n1`, the concentration in solution in data set [1] (solubility) came to 1.2 µM (≈ 0.55 µg/mL). Moreover, the EC50 in data set [2] was above 6.3 µM. The half-life in data set [3] is 56 min. Also, the CC50 at 120 h in data set [5] is above 25 µM.

`CCNc1nc(N2CCN(C(=O)c3cc(Cl)cc(Cl)c3)CC2)cc(C(F)(F)F)n1` came in with a solubility in data set [1] of 2 µM (≈ 0.897 µg/mL). Besides, the EC50 in data set [2] was above 12.5 µM. For the same molecule, in data set [3], the half-life is 29 min. Besides, in data set [5], the CC50 at 120 h is above 50 µM.

Broadly, the solubility is the dissolved amount per volume that the medium holds. One may read the EC50 as the midpoint of the concentration-response curve. By half-life is commonly meant the time needed for the level to fall by half in the phase considered. As a reminder, the CC50 is the concentration giving 50% cytotoxicity.

(Values after ChEMBL document CHEMBL5537149, “Design, synthesis, and lead optimization of piperazinyl-pyrimidine analogues as potent small molecules targeting the viral capping machinery of Chikungunya virus” (Eur J Med Chem, 2024).)
